Reference: PubChem BioAssay AID463142 (The Scripps Research Institute Molecular Screening Center, 2010)

Molecular target: Glutathione S-transferase omega-1 (Homo sapiens) (UniProt P78417)
Assay: GSTO1 inhibitor potency, recombinant enzyme, late-stage follow-up, biochemical, SE-Rh probe, in-gel fluorescence, powder samples, set 2 (AID 463142)
Conditions: recombinant GSTO1, SE-Rh probe labeling

Sequence of Glutathione S-transferase omega-1 (Homo sapiens) (P78417 whole entry, looked up): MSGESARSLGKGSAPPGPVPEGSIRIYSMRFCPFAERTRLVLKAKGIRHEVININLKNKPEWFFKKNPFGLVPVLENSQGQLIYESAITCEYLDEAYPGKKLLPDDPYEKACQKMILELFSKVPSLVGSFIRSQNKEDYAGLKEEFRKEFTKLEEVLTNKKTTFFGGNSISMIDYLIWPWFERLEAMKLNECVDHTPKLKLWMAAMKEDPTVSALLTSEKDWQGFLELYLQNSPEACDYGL

IC50: 40 nM
Structure (SMILES): O=C(CCl)N(CCCNC(=O)C(F)(F)F)c1ccc(Cl)cc1
